Reference: patent publication US8367873B2, “Phenyl-substituted bicyclooctane-1,3-dione derivatives” (Bayer Cropscience AG, priority 2008, dated 2013)

How the values were obtained:
Assay type in all cases: in vivo
[1] = system: Lolium multiflorum; assay: Herbicidal post-emergence action; settings: post-emergence method, 80 g/ha
How it was run: (§1)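 One-leaf-stage greenhouse plants sprayed with WP at graded amounts (600 l/ha, 0.2% wetting agent); ~3 wk later, visual % effect rated vs untreated controls, 100% = dead, 0% = like control.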

[2] = system: Echinocloa crus-galli; assay: Herbicidal post-emergence action; settings: post-emergence method, 80 g/ha
How it was run: as §1

[3] = system: Alopecurus myosuroides; assay: Herbicidal post-emergence action; settings: post-emergence method, 80 g/ha
How it was run: as §1

[4] = system: Setaria viridis; assay: Herbicidal post-emergence action; settings: post-emergence method, 80 g/ha
How it was run: as §1

[5] = system: Lolium multiflorum; assay: Herbicidal pre-emergence action; settings: pre-emergence method, 80 g/ha, greenhouse, visual assessment vs untreated controls
How it was run: (§2)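 Seeds sown in sandy loam and covered with soil; WP-formulated compounds applied as aqueous suspension (600 l/ha water, 0.2% wetting agent) to the soil surface at various rates. Greenhouse-grown; emergence damage scored visually after three weeks versus untreated controls (0% = like control, 100% = plants dead).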

[6] = system: Echinocloa crus-galli; assay: Herbicidal pre-emergence action; settings: pre-emergence method, 80 g/ha, greenhouse, visual assessment vs untreated controls
How it was run: as §2

[7] = system: Alopecurus myosuroides; assay: Herbicidal pre-emergence action; settings: pre-emergence method, 80 g/ha, greenhouse, visual assessment vs untreated controls
How it was run: as §2

[8] = system: Setaria viridis; assay: Herbicidal pre-emergence action; settings: pre-emergence method, 80 g/ha, greenhouse, visual assessment vs untreated controls
How it was run: as §2

[9] = system: monocotylidonous and dicotylidonous weed and crop plants; assay: Herbicidal pre-emergence action (other test plants); settings: pre-emergence method, 80 g/ha, greenhouse, visual assessment vs untreated controls
How it was run: as §2

[10] = system: monocotylidonous and dicotylidonous weed and crop plants; assay: Herbicidal post-emergence action (other test plants); settings: post-emergence method, 80 g/ha
How it was run: as §1

Structure (SMILES)	herbicidal effect against LOLMU (Lolium multiflorum) [1] [%]	herbicidal effect against ECHCG (Echinochloa crus-galli) [2] [%]	herbicidal effect against ALOMY (Alopecurus myosuroides) [3] [%]	herbicidal effect against SETVI (Setaria viridis) [4] [%]	herbicidal effect LOLMU [5] [%]	herbicidal effect ECHCG [6] [%]	herbicidal effect ALOMY [7] [%]	herbicidal effect SETVI [8] [%]	herbicidal effect AVEFA [9] [%]	herbicidal effect against AVEFA (Avena fatua) [10] [%]
CCc1cc(C)cc(CC)c1C1=C(OC(=O)C(C)C)C2CC3(CC2C1=O)OCC=CCO3 (stereo not drawn) [I-b-12]	100	100	90	100	100	100	100	90	70	100
CCc1cc(C)cc(C)c1C1=C(OC(=O)C(C)(C)C)C2CC3(CC2C1=O)OCCCO3 (stereo not drawn) [I-b-74]	100	100	80	80	100	100	60	70	60	80
CCOC(=O)OC1=C(c2c(CC)cc(C)cc2CC)C(=O)C2CC(=NOCC3CC3)CC12 (stereo not drawn) [I-c-40]	100	100	100	100	80	0	80	40	60	0
CCOC(=O)OC1=C(c2c(C)cc(C)cc2OC)C(=O)C2CC3(CC12)OCC=CCO3 (racemic) [I-c-65]	100	100	100	100	100	80	100	90	60	100
CCc1cc(C)cc(CC)c1C1=C(O)C2CC3(COC(CC)O3)CC2C1=O (stereo not drawn) [I-a-6]	100	100	90	90	100	60	100	60	60	70
C#CC(C)ON=C1CC2C(=O)C(c3c(CC)cc(C)cc3CC)=C(OC(=O)OCC)C2C1 (stereo not drawn) [I-c-43]	100	100	100	0	80	80	80	0	40	0
CCc1cc(C)cc(C)c1C1=C(O)C2CC3(COC(C)(C)O3)CC2C1=O (stereo not drawn) [I-a-62]	100	100	100	90	100	100	100	90	40	80
CC(=O)OC1=C(c2c(C)cc(C)cc2C)C(=O)C2CC3(COC(C)(C)O3)CC12 (mixture of isomers) [I-b-49]	100	100	90	60	70	50	90	0	70	80
CCc1cc(C)cc(C)c1C1=C(OC(=O)C(C)C)C2CC3(CC2C1=O)OCCO3 (stereo not drawn) [I-b-79]	100	100	90	100	100	100	70	80	70	100
CCc1cc(C)cc(CC)c1C1=C(OC(=O)C(C)C)C2CC3(COC(C)(C)O3)CC2C1=O (stereo not drawn) [I-b-7]	100	100	90	90	100	60	100	70	80	100
CCc1cc(C)cc(CC)c1C1=C(O)C2CC3(CC2C1=O)OC(C)CC(C)O3 (mixture of isomers) [I-a-12]	100	100	100	100	100	100	100	90	80	100
CCOC(=O)OC1=C(c2c(CC)cc(C)cc2CC)C(=O)C2CC3(CC12)OCCCS3 (mixture of isomers) [I-c-19]	100	100	100	100	90	50	100	90	70	100
CCOC(=O)OC1=C(c2c(C)cc(C)cc2OC)C(=O)C2CC3(CC12)OCCCO3 (racemic) [I-c-63]	100	100	100	100	100	50	80	50	70	100
C=C1CC2C(=O)C(c3c(C)cc(C)cc3CC)=C(OC(=O)OCC)C2C1 (racemic) [I-c-76]	90	100	10	100	90	100	80	90	20	0
CCc1cc(C)cc(CC)c1C1=C(O)C2CC3(COC(C)O3)CC2C1=O (mixture of isomers) [I-a-7]	100	100	90	90	90	70	100	70	80	60
CCc1cc(C)cc(CC)c1C1=C(OC(=O)C(C)C)C2CC3(CC2C1=O)OCC(C)CO3 (stereo not drawn) [I-b-14]	100	100	100	100	100	100	100	100	70	100
C=C1CC2C(=O)C(c3c(C)cc(C)cc3CC)=C(OC(=O)C(C)(C)C)C2C1 (stereo not drawn) [I-b-73]	70	100	0	100	100	90	80	100	80	0
Cc1cc(C)c(C2=C(OC(=O)C(C)(C)C)C3CC4(CC3C2=O)OCCCCO4)c(C)c1 (stereo not drawn) [I-b-40]	100	90	40	80	100	50	90	30	50	20
